Measurements: paper PMC8861095, “Neurotoxicological profile of the hallucinogenic compound 25I-NBOMe” (Scientific Reports, 2022)

Columns and labels:
apoptosis = experiment: TUNEL assay for apoptotic signal in brain slices; format: in vivo, rat; conditions: frontal cortex, anterior and posterior hippocampus; acute or chronic (× 7) 0.3 mg/kg; 72 h after treatment; qualitative
Procedure: (§1) Animals received single or multiple (once per day for seven days) subcutaneous injections of 25I-NBOMe dissolved in 0.9% NaCl at a dose of 0.3 mg/kg/2 ml. The control group was treated with 0.9% NaCl solution in the same way. All procedures were performed 72 h after the last injection. The time point of 72 h was chosen due to the possible generation of neurotoxicity via oxidative stress caused by reactive oxygen species (ROS). Exceptionally, for initial 25I-NBOMe brain distribution studies, rats received the drug in the dose of 1 and 10 mg/kg and were sacrificed 15 min after the drug administration. The rat blood plasma and brain tissues were collected immediately after rats’ decapitation. LSD (0.05 mg/kg, ip) was given daily for 7 days in a volume of 1 ml/kg, while MDMA 5 mg/kg, ip was injected in a volume of 2 ml/kg every second day (overall 4 injections).
As described above, animals were perfused transcardially and brains were fixed overnight in 4% PFA, then gradually dehydrated and stored in 70% ethanol (EtOH). Paraffin-embedded brain tissue was sectioned on a microtome (Leica, RM45) for 7-µm-thick sections. […] The apoptotic signal was assessed using Click-iT™ Plus TUNEL Assay for in situ apoptosis detection with Alexa Fluor™ 488 picolyl azide dye. […] Stained slides were examined under a fluorescence microscope (Nikon Eclipse50i, Japan) equipped with a camera and NIS Elements software.

[1] = 25I-NBOMe distribution in rat blood plasma and brain regions (LC–MS/MS, ESI ion trap); format: in vivo
Procedure: as §1
The presence of 25I-NBOMe in the rat brain regions and blood serum was analyzed with electrospray ion trap mass spectrometry (Amazon SL from Bruker Daltonics, Bremen, Germany). At 72 h after the last injection with 25I-NBOMe or 15 min after injection of single low and high (1 and 10 mg/kg) dose, animals were sacrificed by decapitation. Brains were removed and the frontal cortex, striatum, nucleus accumbens, and hippocampus were dissected. The blood samples were also collected after 25I-NBOMe injections. Tissue samples were homogenized in an ice-cold 0.1 M HClO4, and were centrifuged at 10,000×g for 10 min at 4 °C. Blood was incubated for 30 min and then centrifuged for 15 min, 3000 rpm at 4 °C. The collected blood serum and tissue supernatants were frozen at − 80 °C until the time of mass spectrometry analysis. The value pH of samples was about 2. To purify the samples, solid phase extraction (SPE) columns MacroSpin Columns Silica C18 (The Nest Group, Inc., Southborough, USA) were used. Initially, columns were activated with 100% methanol (MeOH) solution by double centrifugation at 110×g for 1 min. Next, to remove MeOH, 2% acetonitrile (ACN) with 0.1% HCOOH was used. Subsequently, the columns were washed twice with the blood and tissue samples. To remove adenosine-5'-diphosphate (ADP) that has the same precursor ion as 25I-NBOMe the columns were washed twice with 2% ACN. Finally, to wash out 25I-NBOMe, the column was washed twice with 80% ACN with 0.1% HCOOH. Samples were left to dry in SpeedVac Vacuum Concentrator (Labconco, Kansas City, USA) overnight. The following day, samples were dissolved in 10% ACN with 0.1% HCOOH and injected to the LC–MS/MS system. The nanoLC-MS/MS analysis used to separate compounds was performed using the Ultimate 3000 nanocapillary chromatography system (Polygen, Gliwice, Poland). The separations were performed using a PepMap column (15 cm long, 75 μm ID, C18, 3 μm particle size, 100 Å pore size, Thermo-Scientific). The gradient was formed using 0.1% HCOOH in H2O (solvent A) and 0.1% HCOOH in ACN (solvent B), at a flow rate of 300 nl/min. The system was controlled by the Hystar software (Bruker Daltonics). A gradient was produced from 5 to 80% B in 100 min, then kept at 90% of phase B for 10 min. The mass spectrometry detection was performed in positive ion mode by electrospray ion trap mass spectrometry (Amazon SL from Bruker Daltonics, Bremen, Germany). The retention time of 25I-NBOMe was about 30.3 min. The acquired mass spectra were analyzed using the Bruker Data Analysis v. 4.0 software (Bruker Daltonics). The data presented in tables are calculated as intensity per 1 mg of wet tissue or 1 ml of blood serum, while mass spectra represent the real intensity of 25I-NBOMe-precursor ion from tissue samples with different mass.

Q: Which “Apoptotic signal (TUNEL)” value (apoptosis) does the source give for `COc1cc(CCNCc2ccccc2OC)c(OC)cc1I` [25I-NBOMe, 4-Iodo-2,5-dimethoxy-N-(2-methoxybenzyl)phenethylamine] here?
A: did not indicate apoptotic signal

Q: What about the “Accumulation in brain tissue after repeated administration” value ([1]; 0.3 mg/kg × 7 vs single dose, 72 h) of the same molecule?
A: caused drug accumulation in the brain tissue

Q: What about the “Intensity of the 25I-NBOMe precursor ion (~ 428 m/z)” value (“Intensity” for short) ([1]; blood plasma, single 1 mg/kg, 15 min after injection, per 1 ml of blood serum, one sample preparation) of the same molecule?
A: 9.24 × 10^4 a.u.

Q: And the “Intensity” value ([1]; blood plasma, single 10 mg/kg, 15 min after injection, per 1 ml of blood serum, one sample preparation)?
A: 5.44 × 10^5 a.u.

Q: And the “Crossing of the blood–brain barrier (BBB)” value ([1]; detected in blood serum and several brain regions 15 min after injection)?
A: easily crosses the blood–brain barrier (BBB)

Q: And the “Intensity” value ([1]; frontal cortex, chronic 0.3 mg/kg × 7 sc, 72 h after last injection, per 1 mg of wet tissue)?
A: 2.93 × 10^4 a.u.

Q: And the “Intensity” value ([1]; frontal cortex, single 0.3 mg/kg sc, 72 h after injection, per 1 mg of wet tissue)?
A: 2.25 × 10^3 a.u.

Q: And the “Intensity” value ([1]; frontal cortex, single 1 mg/kg, 15 min after injection, per 1 mg of wet tissue)?
A: 2.94 × 10^4 a.u.

Q: And the “Intensity” value ([1]; frontal cortex, single 10 mg/kg, 15 min after injection, per 1 mg of wet tissue)?
A: 4.36 × 10^5 a.u.

Q: What about the “Intensity” value ([1]; hippocampus, chronic 0.3 mg/kg × 7 sc, 72 h after last injection, per 1 mg of wet tissue) of the same molecule?
A: 1.72 × 10^4 a.u.

Q: What about the “Intensity” value ([1]; hippocampus, single 0.3 mg/kg sc, 72 h after injection, per 1 mg of wet tissue) of the same molecule?
A: 6.89 × 10^3 a.u.

Q: And the “Intensity” value ([1]; hippocampus, single 1 mg/kg, 15 min after injection, per 1 mg of wet tissue)?
A: 1.60 × 10^4 a.u.

Q: What about the “Intensity” value ([1]; hippocampus, single 10 mg/kg, 15 min after injection, per 1 mg of wet tissue) of the same molecule?
A: 2.71 × 10^5 a.u.

Q: What about the “Intensity” value ([1]; nucleus accumbens, chronic 0.3 mg/kg × 7 sc, 72 h after last injection, per 1 mg of wet tissue) of the same molecule?
A: 9.00 × 10^3 a.u.

Q: And the “Intensity” value ([1]; nucleus accumbens, single 0.3 mg/kg sc, 72 h after injection, per 1 mg of wet tissue)?
A: 3.85 × 10^3 a.u.

Q: And the “Intensity” value ([1]; nucleus accumbens, single 1 mg/kg, 15 min after injection, per 1 mg of wet tissue)?
A: 2.32 × 10^7 a.u.

Q: What about the “Intensity” value ([1]; nucleus accumbens, single 10 mg/kg, 15 min after injection, per 1 mg of wet tissue) of the same molecule?
A: 7.15 × 10^7 a.u.

Q: And the “Intensity” value ([1]; striatum, chronic 0.3 mg/kg × 7 sc, 72 h after last injection, per 1 mg of wet tissue)?
A: 2.12 × 10^3 a.u.

Q: What about the “Intensity” value ([1]; striatum, single 0.3 mg/kg sc, 72 h after injection, per 1 mg of wet tissue) of the same molecule?
A: 1.61 × 10^3 a.u.

Q: And the “Intensity” value ([1]; striatum, single 1 mg/kg, 15 min after injection, per 1 mg of wet tissue)?
A: 5.97 × 10^4 a.u.

Q: And the “Intensity” value ([1]; striatum, single 10 mg/kg, 15 min after injection, per 1 mg of wet tissue)?
A: 6.95 × 10^5 a.u.
